Columns and labels:
nutsedge, yellow = test: Test C pre-/postemergence herbicide test; type: in vivo, Cyperus esculentus
In short: (§1)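 Visual rating, 0 (no effect) to 100 (complete control), versus untreated controls after 13 to 15 days in the greenhouse. Pre: seeds in loam/sand, sprayed at planting. Post: 1- to 4-leaf plants (2 to 18 cm) in peat-based mix. Compounds in non-phytotoxic solvent plus surfactant.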

foxtail, giant = test: Test C pre-/postemergence herbicide test; type: in vivo, Setaria faberii
In short: as §1

rice = test: Test B flooded paddy test; type: in vivo, Oryza sativa; details: 500 g ai/ha, Flood; scale of 0 to 100 where 0 is no effect and 100 is complete control
In short: (§2)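 Visual ratings from 0, meaning no effect, up to 100, meaning complete control, were made by comparison with untreated controls 13 to 15 days after treatment. Test compounds went straight into floodwater standing 3 cm over the soil of pots holding 2-leaf seedlings.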

velvetleaf = test: Test C pre-/postemergence herbicide test; type: in vivo, Abutilon theophrasti
In short: as §1

lambsquarters = test: Test C pre-/postemergence herbicide test; type: in vivo, Chenopodium album
In short: as §1

corn = test: Test A pre-/postemergence herbicide test; type: in vivo, Zea mays; details: Postemergence
In short: (§3)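 Seeds sown in loam soil/sand blend received a preemergence directed soil spray of test chemical in non-phytotoxic solvent with surfactant; postemergence plants (2–10 cm, one- to two-leaf stage) were sprayed with the same formulation. After about 10 days in greenhouse, injury was rated visually versus untreated controls, 0 (no effect) to 100 (complete control).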

wheat (winter wheat) = test: Test C pre-/postemergence herbicide test; type: in vivo, Triticum aestivum; details: for Plant response rating, Wheat: Postemergence
In short: as §1

morningglory = test: Test C pre-/postemergence herbicide test; type: in vivo, Ipomoea coccinea
In short: as §1

sedge, umbrella = test: Test B flooded paddy test; type: in vivo, Cyperus difformis; details: 500 g ai/ha, Flood; scale of 0 to 100 where 0 is no effect and 100 is complete control
In short: as §2

giant foxtail = test: Test A pre-/postemergence herbicide test; type: in vivo, Setaria faberii
In short: as §3

barnyardgrass = test: Test A pre-/postemergence herbicide test; type: in vivo, Echinochloa crus-galli
In short: as §3

[1] = Postemergence, 31 g ai/ha, scale 0 to 100 (0 no effect, 100 complete control)
[2] = Postemergence, 62 g ai/ha, scale 0 (no effect) to 100 (complete control)
[3] = Postemergence, 125 g ai/ha, scale 0 to 100 (0 no effect, 100 complete control)
[4] = Postemergence, 250 g ai/ha, scale 0 to 100 (0 no effect, 100 complete control)
[5] = Preemergence, 31 g ai/ha, scale 0 to 100, 0 is no effect and 100 is complete control
[6] = Preemergence, 62 g ai/ha, scale 0 to 100 (0 no effect, 100 complete control)
[7] = Preemergence, 125 g ai/ha, scale 0 to 100 (0 no effect, 100 complete control)
[8] = Postemergence, 125 g ai/ha, visual rating on 0 to 100 scale (0 no effect, 100 complete control), approx. 10 days
[9] = Postemergence, 500 g ai/ha, 0 to 100 scale (0 no effect, 100 complete control)
[10] = Preemergence, 125 g ai/ha, 0 to 100 scale where 0 is no effect and 100 is complete control
[11] = Preemergence, 500 g ai/ha, visual rating on 0 to 100 scale (0 no effect, 100 complete control)

CN1CC(c2cccc(C(F)(F)F)c2)C(C(=O)Nc2cccc(F)c2F)C1=O (centres unmarked) [Compound 305]
Plant response rating, Nutsedge, Yellow (nutsedge, yellow; [1]): 0 | Plant response rating, Nutsedge, Yellow (nutsedge, yellow; [2]): 0 | Plant response rating, Nutsedge, Yellow (nutsedge, yellow; [3]): 0 | Plant response rating, Nutsedge, Yellow (nutsedge, yellow; [4]): 0 | Nutsedge, Yellow plant response rating (nutsedge, yellow; [5]): 0 | Nutsedge, Yellow plant response rating (nutsedge, yellow; [6]): 0 | Plant response rating, Nutsedge, Yellow (nutsedge, yellow; [7]): 0 | Plant response rating (scale of 0 to 100), Nutsedge, Yellow (nutsedge, yellow; Preemergence, 250 g ai/ha): 100 | Plant response rating, Foxtail, Giant (foxtail, giant; [1]): 0 | Plant response rating, Foxtail, Giant (foxtail, giant; [2]): 65 | Plant response rating, Foxtail, Giant (foxtail, giant; [3]): 85 | Plant response rating, Foxtail, Giant (foxtail, giant; [4]): 90 | Foxtail, Giant plant response rating (foxtail, giant; [5]): 95 | Foxtail, Giant plant response rating (foxtail, giant; [6]): 95 | Plant response rating, Foxtail, Giant (foxtail, giant; [7]): 95 | Plant response rating (scale of 0 to 100), Foxtail, Giant (foxtail, giant; Preemergence, 250 g ai/ha): 95 | Plant response rating, Rice (rice): 15 | Plant response rating, Velvetleaf (velvetleaf; [1]): 10 | Plant response rating, Velvetleaf (velvetleaf; [2]): 40 | Plant response rating, Velvetleaf (velvetleaf; [3]): 40 | Plant response rating, Velvetleaf (velvetleaf; [4]): 65 | Velvetleaf plant response rating (velvetleaf; [5]): 25 | Velvetleaf plant response rating (velvetleaf; [6]): 30 | Plant response rating, Velvetleaf (velvetleaf; [7]): 55 | Plant response rating (scale of 0 to 100), Velvetleaf (velvetleaf; Preemergence, 250 g ai/ha): 55 | Plant response rating, Lambsquarters (lambsquarters; [1]): 60 | Plant response rating, Lambsquarters (lambsquarters; [2]): 35 | Plant response rating, Lambsquarters (lambsquarters; [3]): 50 | Plant response rating, Lambsquarters (lambsquarters; [4]): 65 | Lambsquarters plant response rating (lambsquarters; [5]): 60 | Lambsquarters plant response rating (lambsquarters; [6]): 70 | Plant response rating, Lambsquarters (lambsquarters; [7]): 70 | Plant response rating (scale of 0 to 100), Lambsquarters (lambsquarters; Preemergence, 250 g ai/ha): 75 | Plant response rating, Corn (corn; 125 g ai/ha, visual rating on 0 to 100 scale (0 no effect, 100 complete control), approx. 10 days): 70 | Plant response rating, Corn (corn; 500 g ai/ha, 0 to 100 scale (0 no effect, 100 complete control)): 70 | Plant response rating, Wheat (wheat (winter wheat); 31 g ai/ha, scale 0 to 100 (0 no effect, 100 complete control)): 0 | Plant response rating, Wheat (wheat (winter wheat); 62 g ai/ha, scale 0 (no effect) to 100 (complete control)): 0 | Plant response rating, Wheat (wheat (winter wheat); 125 g ai/ha, scale 0 to 100 (0 no effect, 100 complete control)): 0 | Plant response rating, Wheat (wheat (winter wheat); 250 g ai/ha, scale 0 to 100 (0 no effect, 100 complete control)): 5 | Wheat plant response rating (wheat (winter wheat); [5]): 45 | Wheat plant response rating (wheat (winter wheat); [6]): 90 | Plant response rating (scale of 0 to 100), Wheat (wheat (winter wheat); Preemergence, 250 g ai/ha): 90 | Plant response rating, Morningglory (morningglory; [1]): 25 | Plant response rating, Morningglory (morningglory; [2]): 20 | Plant response rating, Morningglory (morningglory; [3]): 75 | Plant response rating, Morningglory (morningglory; [4]): 20 | Morningglory plant response rating (morningglory; [5]): 0 | Morningglory plant response rating (morningglory; [6]): 30 | Plant response rating, Morningglory (morningglory; [7]): 40 | Plant response rating (scale of 0 to 100), Morningglory (morningglory; Preemergence, 250 g ai/ha): 65 | Plant response rating, Sedge, Umbrella (sedge, umbrella): 0 | Plant response rating, Foxtail, Giant (giant foxtail; [8]): 80 | Plant response rating, Foxtail, Giant (giant foxtail; [9]): 80 | Plant response rating, Foxtail, Giant (giant foxtail; [10]): 90 | Foxtail, Giant plant response rating (giant foxtail; [11]): 90 | Plant response rating, Barnyardgrass (barnyardgrass; [8]): 80 | Plant response rating, Barnyardgrass (barnyardgrass; [9]): 90 | Plant response rating, Barnyardgrass (barnyardgrass; [10]): 80 | Barnyardgrass plant response rating (barnyardgrass; [11]): 90
